Values quoted from earlier work as cited in patent US20130190388A1, “Methods and Compositions Related to DLK-1 and the P38 MAPK Pathway in Nerve Regeneration” (University of Utah Research Foundation, priority 2008, published 2013).

Columns and labels:
[1] = tested on: adult DRG neurons; conditions: inhibiting p38 signaling; reduced from about 65% without inhibitor
[2] = tested on: Magellan (Phr-1) growth cone phenotype; conditions: Phr-1 (Magellan) mutant neurons

Row | Compound | regeneration in vitro by adult DRG neurons [1] | growth cone phenotype (expanded region of disorganized microtubules) [2]
1 | C[S+]([O-])c1ccc(-c2nc(-c3ccncc3)c(-c3ccc(F)cc3)[nH]2)cc1 (centres unmarked) [SB203580] | 10% | 
2 | CC(=O)O[C@H]1C(=O)[C@@]2(C)[C@H]([C@H](OC(=O)c3ccccc3)[C@]3(O)C[C@H](OC(=O)[C@H](O)[C@@H](NC(=O)c4ccccc4)c4ccccc4)C(C)=C1C3(C)C)[C@]1(OC(C)=O)CO[C@@H]1C[C@@H]2O [Taxol] |  | rescued
